# From article PMC12010006, “Subnanomolar MAS-related G protein-coupled receptor-X2/B2 antagonists with efficacy in human mast cells and disease models” (Signal Transduction and Targeted Therapy, 2025)
# Tests used:
# MRGPRX2 [1] = biological target: T1, MRGPRX2 (Homo sapiens, UniProt Q96LB1); experiment: Ca2+ mobilization assay, LN229 cells overexpressing MRGPRX2; type: cell-based; parameters: expressed in transfected cells; host or cells: LN229 human glioblastoma cells; plasmid pLXSN-MRGPRX2 (Addgene #213960); settings: for MRGPRX2 antagonistic potency in Ca2+ assay, in words: versus CST-14; for Ki: versus CST-14 (EC80 800 nM, EC50 452 nM), Cheng-Prusoff, read-out: Ca2+ assay Ki ± SEM
# T1 sequence (Q96LB1 1-330): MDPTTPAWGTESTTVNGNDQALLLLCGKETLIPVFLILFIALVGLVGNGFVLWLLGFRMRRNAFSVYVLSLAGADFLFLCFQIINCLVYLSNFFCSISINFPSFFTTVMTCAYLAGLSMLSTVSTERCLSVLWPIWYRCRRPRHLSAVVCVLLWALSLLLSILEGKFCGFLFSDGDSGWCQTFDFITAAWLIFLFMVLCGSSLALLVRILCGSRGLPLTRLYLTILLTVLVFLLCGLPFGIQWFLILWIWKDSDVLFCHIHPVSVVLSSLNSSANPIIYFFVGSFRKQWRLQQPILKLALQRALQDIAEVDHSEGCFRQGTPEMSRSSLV
# Protocol: Glioblastoma LN229-MRGPRX2 stably expressing MRGPRX2 (produced by retroviral transfection) were seeded into black sterile 96-well microplates at a density of 5 × 10^4 cells/well in 200 µL of DMEM/F12-Nut Mix medium, supplemented with 10% FCS, 100 U/mL of penicillin 100 µg/mL of streptomycin, and 200 µg/mL of G418 and incubated for 18–22 h.
# The next day Fluo-4 AM Solution (1 mM) (Thermo Fisher Scientific) was prepared and used to prepare cell loading dye solution consisting of 4970 µL of Hank’s Buffered Saline Solution (HBSS) buffer, 15 µL of 20% Pluronic-F and 15 µL of 1 mM Fluo-4 AM. Next, the cell medium was removed and exchanged for 40 µL of dye solution per well (final concentration of Fluo-4 AM: 3 µM). The cell plate was incubated for 60 min in the dark at room temperature, then the dye solution was removed and replaced by 189 µL HBSS. Subsequently, 1 µL of antagonist diluted in DMSO was added and incubated for 30 min at room temperature and in the dark (final DMSO concentration 0.5%, v/v). CST-14 or another agonist prepared in HBSS as well as carbachol (final concentration 100 µM) were pipetted (10 µL) using a FlexStation® 3 Multi-Mode Microplate Reader. For the determination of baseline fluorescence, HBSS buffer containing solvent of the investigated compound was used. Fluorescence was measured for 120 intervals of 1 s (number of flashes: 10) at a wavelength of 525 nm (excitation 485 nm) using the SoftMax® Pro5.1 Microplate Data Acquisition & Analysis Software. Three independent experiments were performed in duplicates. Measurements are provided in relative fluorescence units and normalized to the maximal effect of CST-14.
# MRGPRX2 [2] = biological target: T1, MRGPRX2; experiment: β-arrestin assay (agonist mode), β-arrestin CHO cells recombinantly expressing MRGPRX2; type: cell-based; settings: for EC50: agonist test, read-out: β-Arrestin assay EC50 ± SEM; for β-Arrestin assay % activation: normalized to CST-14 (EC80 5,000 nM)
# Text: Eurofins DiscoverX (Fremont, CA, USA) provided engineered Chinese hamster ovary (CHO) cells stably expressing β-arrestin-2 fused to a large β-galactosidase fragment (enzyme acceptor, EA). These CHO-K1-β-arrestin-2 cells were commercially available (93-0164). CHO-K1-β-arrestin-2 cells that additionally expressed MRGPRX1, -2, or -4 fused to the fragment ProLink™ (PK) were also purchased from the same company (93-0919C2, 93-0309C2, and 3-0541C2A, respectively). CHO cells expressing MRGPRX3 were generated as previously […].[31] The cells were grown in F-12 Ham Nutrient Mixture (Life Technologies) supplemented with 10% FBS, 100 U/mL of penicillin, 100 µg/mL of streptomycin (PAN-Biotech), 300 μg/mL of hygromycin B (PAN-Biotech), and 800 μg/mL of gentamicin (PAN-Biotech) at 37 °C and 5% CO2.).
# The assays were carried out as previously described.[22] […] After 30 min of incubation at 37 °C and 5% CO2, Cortistatin-14 (CST-14, Bioscience, Bristol, United Kingdom) or another MRGPRX2 agonist that served as a standard agonist was added, and the mixture was incubated for 90 min at 37 °C and 5% CO2. Next, a detection reagent (50 µL, DiscoverX) was added, and the mixture was incubated at room temperature in the dark for 60 min. Chemiluminescence was measured on a Mithras LB 940 plate reader (Berthold Technologies, Bad Wildbad, Germany). The results represent means ± SEM of three to five independent experiments, each in duplicates.
# ^d β-Arrestin CHO cells recombinantly expressing MRGPRX2
# ^f Percentage of activation of normalized to CST-14 (EC80 5,000 nM)
# MRGPRX2 [3] = biological target: T1, MRGPRX2; experiment: β-arrestin recruitment assay (antagonist mode), β-arrestin-CHO cells recombinantly expressing MRGPRX2; type: cell-based; parameters: expressed in transfected cells; settings: for Ki: versus CST-14 (EC80 1,000 nM, EC50 483 nM), Cheng-Prusoff, read-out: β-Arrestin assay Ki ± SEM
# [4] = Metabolic stability in human liver microsomes; type: in vitro ADME; settings: both sexes, human liver microsomes 0.25 mg/ml, compound 1 µM
"MRGPRX2 antagonistic potency in Ca2+ assay, in words (MRGPRX2 [1])",EC50 (MRGPRX2 [2]) [nM],β-Arrestin assay % activation (MRGPRX2 [2]) [%],Ki (MRGPRX2 [1]) [nM],Ki (MRGPRX2 [3]) [nM],SMILES,also measured
abolished antagonistic activity,> 10000,1,–,–,CCc1c(C(C)C)[nH]c2nc3c(C)cccc3n2c1=O [Compound 31],–
subnanomolar potencies,> 10000,-1,0.895,94.4 ± 63.8,CCc1c(C(C)C)[nH]c2nc3ccccc3n2c1=O [Compound 10],fold increase in potency compared to hit compound 1 (MRGPRX2 [1]): 275 fold
subnanomolar potencies,> 10000,-2,0.161,29.6 ± 19,CCc1c(C(C)C)[nH]c2nc3cc(C)ccc3n2c1=O [Compound 29],fold improved potency compared to 27 (MRGPRX2 [1]): 40 fold
–,> 10000,-1,8.44,113 ± 42.3,CCc1c(C(C)(C)C)[nH]c2nc3ccccc3n2c1=O [Compound 13],–
–,> 10000,-1,16.6 ± 10.9,69.7 ± 20.8,CCCc1[nH]c2nc3ccccc3n2c(=O)c1CCC [Compound 9],–
–,> 10000,0,–,–,Cc1cc(=O)n2c(nc3ccccc32)[nH]1 [Compound 4],–
–,> 10000,-1,–,–,"O=c1cc[nH]c2nc3ccccc3n12 [Compound 5, benzo[4,5]imidazo[1,2-α]pyrimidin-4(1H)-one]",–
reduced potency dramatically,–,–,906 ± 137,1610,CCc1c(C(C)C)[nH]c2nc3nc(F)ccc3n2c1=O [Compound 33],"half-life at 1 µM ([4]; human, liver microsomes, read-out: T1/2 (half-life)): 48.8 min; microsomal CLint at 1 µM ([4]; read-out: Clint (intrinsic clearance)): 28.4 µL/min/mg"
–,> 10000,-2,238,1050,CCc1c(C)[nH]c2nc3ccccc3n2c1=O [Compound 2],–
–,> 10000,1,2.98,155 ± 56.6,CCc1c(C(C)C)[nH]c2nc3cc(Cl)c(Cl)cc3n2c1=O [Compound 25],–
–,> 10000,-1,1.42,48.2 ± 1.08,CC(C)c1cc(=S)n2c(nc3ccccc32)[nH]1 [Compound 18],fold increase in potency compared to 7 (MRGPRX2 [1]): ~3000 fold
–,> 10000,0,69.7,384 ± 214,CCc1c(C2CC2)[nH]c2nc3ccccc3n2c1=O [Compound 14],–
–,> 10000,-2,18.5 ± 13.7,152 ± 33.8,CCc1c(CC(C)C)[nH]c2nc3ccccc3n2c1=O [Compound 12],–
–,> 10000,1,4730,4790,"CCCc1cc(=O)n2c(nc3ccccc32)[nH]1 [Compound 6, 2-Propylbenzo[4,5]imidazo[1,2-a]pyrimidin-4(1H)-one]",–
–,–,–,–,–,"CN(C)CCCN1c2ccccc2CCc2ccc(Cl)cc21 [clomipramine, reference compound]","EC80 of agonist, β-arrestin assay (MRGPRX2 [3]): 13000 nM"
inactive,> 10000,0,–,–,Cc1cc(=O)n2c(n1)oc1ccccc12 [Compound 22],–
–,> 10000,-1,25.8,90.5 ± 7.03,CCCc1[nH]c2nc3ccccc3n2c(=O)c1CC [Compound 8],–
–,> 10000,0,364,175 ± 49.5,CCc1c(-c2ccccc2)[nH]c2nc3ccccc3n2c1=O [Compound 15],–
–,> 10000,-1,13.3,289 ± 119,CCc1c(C(C)C)[nH]c2nc3cc(Br)c(Br)cc3n2c1=O [Compound 26],–
–,> 10000,-2,–,–,CCc1c(-c2cccs2)[nH]c2nc3ccccc3n2c1=O [Compound 16],–
inactive,> 10000,-1,–,–,Cc1cc(=O)n2c(n1)sc1ccccc12 [Compound 23],–
–,> 10000,-3,–,–,Cc1cc(=S)n2c(nc3ccccc32)[nH]1 [Compound 17],–
subnanomolar potencies,> 10000,-3,0.322,47.8 ± 9.77,CCc1c(C(C)C)[nH]c2nc3ccc(C)cc3n2c1=O [Compound 28],fold improved potency compared to 27 (MRGPRX2 [1]): 20 fold
–,> 10000,0,4260,1050,CC(C)c1cc(=O)n2c(nc3ccccc32)[nH]1 [Compound 7],–
reduced potency dramatically,> 10000,-3,931 ± 685,824 ± 553,CCc1c(C(C)C)[nH]c2nc3ncc(F)cc3n2c1=O [Compound 32],–
–,> 10000,1,43.3 ± 24.5,166 ± 69.7,CCCc1c(C(C)C)[nH]c2nc3ccccc3n2c1=O [Compound 11],–
–,> 10000,1,1040,3780,Cc1[nH]c2nc3ccccc3n2c(=O)c1C [Compound 3],fold decrease in potency (MRGPRX2 [1]; 3-methyl compared to 3-ethyl (2)): 4 fold
completely inactive,> 10000,-1,–,–,CSc1cc(C(C)C)nc2nc3ccccc3n12 [Compound 19],–
–,–,–,–,–,"CN(C)[C@@H]1CCN(c2cc(-c3ccccc3)nc3ccnn23)C1 [(R)-ZINC-3573, reference compound]","EC80 of agonist, β-arrestin assay (MRGPRX2 [3]): 2000 nM; EC50 (MRGPRX2 [3]; without antagonist, read-out: EC50 of (R)-ZINC-3573, shift assay): 2020 ± 333 nM"

SMILES,"MRGPRX2 antagonistic potency in Ca2+ assay, in words (MRGPRX2 [1])",EC50 (MRGPRX2 [2]) [nM],β-Arrestin assay % activation (MRGPRX2 [2]) [%],Ki (MRGPRX2 [1]) [nM],Ki (MRGPRX2 [3]) [nM],also measured
CCc1c(C)n(C)c2nc3ccccc3n2c1=O [Compound 20],not tolerated,> 10000,1,–,–,–
CC(C)c1cc(=O)n2c3ccccc3n(C)c2n1 [Compound 21],not tolerated,> 10000,-1,–,–,–
